Reference: ChEMBL document CHEMBL5528038, “Discovery of 2,3-Diaminoindole Derivatives as a Novel Class of NOD Antagonists” (J Med Chem, 2024)

Experiments:
in vitro [1] = conditions: human, HEK-Blue hNOD1 cells
in vitro [2] = conditions: human, HEK-Blue hNOD2 cells
[3] = target: T1, Nucleotide-binding oligomerization domain-containing protein 1 (Homo sapiens, UniProt Q9Y239)
T1 sequence (Q9Y239 whole entry): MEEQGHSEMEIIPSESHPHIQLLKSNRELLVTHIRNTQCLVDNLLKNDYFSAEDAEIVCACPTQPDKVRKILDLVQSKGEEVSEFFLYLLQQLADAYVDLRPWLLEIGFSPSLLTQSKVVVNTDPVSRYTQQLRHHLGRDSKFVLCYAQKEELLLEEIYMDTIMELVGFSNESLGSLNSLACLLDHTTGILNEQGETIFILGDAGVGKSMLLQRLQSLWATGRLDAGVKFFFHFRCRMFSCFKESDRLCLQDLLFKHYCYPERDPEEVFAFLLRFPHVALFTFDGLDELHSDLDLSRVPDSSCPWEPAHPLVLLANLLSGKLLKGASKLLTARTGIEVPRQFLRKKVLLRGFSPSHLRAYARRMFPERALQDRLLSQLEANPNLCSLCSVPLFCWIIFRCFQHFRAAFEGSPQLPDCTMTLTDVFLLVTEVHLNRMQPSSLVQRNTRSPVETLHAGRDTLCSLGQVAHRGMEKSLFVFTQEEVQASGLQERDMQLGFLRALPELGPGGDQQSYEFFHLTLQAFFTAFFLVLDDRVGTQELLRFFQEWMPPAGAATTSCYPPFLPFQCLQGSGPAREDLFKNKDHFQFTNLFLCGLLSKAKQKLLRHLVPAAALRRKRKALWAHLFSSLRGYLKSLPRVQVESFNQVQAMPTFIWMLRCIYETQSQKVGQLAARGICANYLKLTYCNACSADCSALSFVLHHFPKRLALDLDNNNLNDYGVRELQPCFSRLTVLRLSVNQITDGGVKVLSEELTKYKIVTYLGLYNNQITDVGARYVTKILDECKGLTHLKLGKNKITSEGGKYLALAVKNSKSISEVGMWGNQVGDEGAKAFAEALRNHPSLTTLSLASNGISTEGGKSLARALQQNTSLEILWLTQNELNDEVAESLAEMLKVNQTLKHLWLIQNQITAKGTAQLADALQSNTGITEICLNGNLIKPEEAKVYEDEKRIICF
Description: Antagonist activity at human NOD1 expressed in HEK-Blue cells coexpressing NF-kappaB-inducible SEAP reporter gene assessed as inhibition of C12-iE-DAP-induced NF-kappaB transcriptional activity by measuring decrease in SEAP activity preincubated for 1 hr followed by C12-iE-DAP addition and measured after 18 hrs by spectrophotometric analysis

[4] = target: Nucleotide-binding oligomerization domain-containing protein 2 (Homo sapiens, UniProt Q9HC29)
Sequence of Nucleotide-binding oligomerization domain-containing protein 2 (Q9HC29 whole entry, the tested form may be a part): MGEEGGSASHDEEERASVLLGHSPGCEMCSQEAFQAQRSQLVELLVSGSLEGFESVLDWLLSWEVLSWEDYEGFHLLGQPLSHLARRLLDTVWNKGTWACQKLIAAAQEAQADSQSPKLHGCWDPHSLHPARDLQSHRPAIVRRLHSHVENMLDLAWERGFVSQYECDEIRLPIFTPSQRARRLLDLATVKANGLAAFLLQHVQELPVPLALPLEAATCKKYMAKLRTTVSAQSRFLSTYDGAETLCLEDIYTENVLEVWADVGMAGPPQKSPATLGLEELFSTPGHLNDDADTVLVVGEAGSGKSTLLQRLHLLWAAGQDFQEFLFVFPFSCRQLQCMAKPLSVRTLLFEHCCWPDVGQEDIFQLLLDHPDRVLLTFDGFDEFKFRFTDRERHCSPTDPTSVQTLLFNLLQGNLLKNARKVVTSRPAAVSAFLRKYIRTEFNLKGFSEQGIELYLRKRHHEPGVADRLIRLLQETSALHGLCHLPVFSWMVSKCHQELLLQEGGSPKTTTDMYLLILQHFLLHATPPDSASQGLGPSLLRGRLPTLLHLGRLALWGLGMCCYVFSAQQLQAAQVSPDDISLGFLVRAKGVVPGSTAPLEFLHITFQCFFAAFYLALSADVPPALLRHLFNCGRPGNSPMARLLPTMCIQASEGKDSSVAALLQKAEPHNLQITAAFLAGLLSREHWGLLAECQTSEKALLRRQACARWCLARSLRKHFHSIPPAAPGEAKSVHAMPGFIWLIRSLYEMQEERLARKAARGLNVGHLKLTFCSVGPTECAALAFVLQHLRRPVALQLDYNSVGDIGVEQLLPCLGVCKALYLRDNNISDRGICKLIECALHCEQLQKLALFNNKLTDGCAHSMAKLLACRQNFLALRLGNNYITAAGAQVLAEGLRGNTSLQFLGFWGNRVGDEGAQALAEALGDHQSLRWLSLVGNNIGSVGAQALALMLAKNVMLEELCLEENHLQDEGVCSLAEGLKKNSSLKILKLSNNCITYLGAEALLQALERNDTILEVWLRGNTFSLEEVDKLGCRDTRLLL
Description: Antagonist activity at human NOD2 (unknown origin)

IC50 [3] [µM] | IC50 [4] [µM] | SMILES | viability at 18 h, 25 µM (in vitro [1]) [%] | viability at 18 h, 25 µM (in vitro [2]) [%]
– | – | CC(C)(C)Nc1c(N2CCOCC2)c2ccccc2n1S(=O)(=O)c1ccc([N+](=O)[O-])cc1 | ≥ 80 | ≥ 80
– | – | Cc1ccc(S(=O)(=O)n2c(NC3CCCCC3)c(N3CCN(C)CC3)c3cc4ccccc4cc32)cc1 | ≥ 80 | ≥ 80
– | – | Cc1ccc(S(=O)(=O)n2c(NC(C)(C)C)c(N3CCN(C)CC3)c3cc4ccccc4cc32)cc1 | ≥ 80 | ≥ 80
– | – | CCN(CC)c1c(NC(C)(C)C)n(S(=O)(=O)c2ccc(C)cc2)c2ccccc12 | ≥ 80 | ≥ 80
– | – | COC(=O)CNc1c(N2CCOCC2)c2ccccc2n1S(=O)(=O)c1ccc(C)cc1 | ≥ 80 | ≥ 80
– | – | Cc1ccc(S(=O)(=O)n2c(NC(C)(C)C)c(N3CCOCC3)c3cc(Cl)ccc32)cc1 | ≥ 80 | ≥ 80
18.5 | – | Cc1ccc(S(=O)(=O)n2c(NC3CCCCC3)c(N3CCN(C)CC3)c3ccccc32)cc1 | ≥ 80 | ≥ 80
– | – | COc1ccc(S(=O)(=O)n2c(NC(C)(C)C)c(N3CCOCC3)c3ccccc32)cc1 | ≥ 80 | ≥ 80
– | – | CCN(CC)c1c(NC(C)(C)C)n(S(=O)(=O)c2ccc(C)cc2)c2cccc(C)c12 | ≥ 80 | ≥ 80
– | – | Cc1ccc(S(=O)(=O)n2c(NCc3ccccc3)c(N3CCN(C)CC3)c3ccccc32)cc1 | ≥ 80 | ≥ 80
– | – | Cc1ccc(S(=O)(=O)n2c(NC(C)(C)C)c(N3CCOCC3)c3ccccc32)cc1 | ≥ 80 | ≥ 80
– | – | Cc1ccc(S(=O)(=O)n2c(NC3CC3)c(N3CCOCC3)c3cc(Cl)ccc32)cc1 | ≥ 80 | ≥ 80
– | – | Cc1ccc(S(=O)(=O)n2c(NC(C)(C)C)c(N3CCCCC3)c3ccccc32)cc1 | ≥ 80 | ≥ 80
– | – | Cc1ccc(S(=O)(=O)n2c(NCc3ccccc3)c(N3CCOCC3)c3ccccc32)cc1 | ≥ 80 | ≥ 80
– | – | C#CCN(C)c1c(Nc2ccc3ccccc3c2)n(S(=O)(=O)c2ccc(C)cc2)c2cc(Cl)ccc12 | ≥ 80 | ≥ 80
– | – | O=[N+]([O-])c1ccc(S(=O)(=O)n2c(NCc3ccccc3)c(N3CCOCC3)c3ccccc32)cc1 | ≥ 80 | ≥ 80
– | > 20 | CCCCCn1c(SCCc2ccccc2)nc2[nH]c(=O)[nH]c(=O)c21 | – | –
20.7 | – | Cc1ccc(S(=O)(=O)n2c(NCc3ccccc3)c(N3CCN(C)CC3)c3cc4ccccc4cc32)cc1 | ≥ 80 | ≥ 80
– | – | CCCCCNc1c(N(CC)CC)c2ccccc2n1S(=O)(=O)c1ccc(C)cc1 | ≥ 80 | ≥ 80
– | – | CCCCCNc1c(N2CCOCC2)c2ccccc2n1S(=O)(=O)c1ccc(C)cc1 | ≥ 80 | ≥ 80
26.1 | – | CCCCCNc1c(N2CCOCC2)c2ccccc2n1S(=O)(=O)c1ccc([N+](=O)[O-])cc1 | ≥ 80 | ≥ 80
